# Key:
# Format in all cases: biochemical
# KDM4E [1] = target: T1, KDM4E (Homo sapiens, UniProt B2RXH2); assay: MALDI–TOF MS demethylation/+16 Da assay, KDM4E; conditions: 60 min, 2 µM KDM4E, 10 µM peptide
# T1 construct: KDM4E1–337; made in house; host or cells: E. coli
# T1 sequence (B2RXH2 1-337): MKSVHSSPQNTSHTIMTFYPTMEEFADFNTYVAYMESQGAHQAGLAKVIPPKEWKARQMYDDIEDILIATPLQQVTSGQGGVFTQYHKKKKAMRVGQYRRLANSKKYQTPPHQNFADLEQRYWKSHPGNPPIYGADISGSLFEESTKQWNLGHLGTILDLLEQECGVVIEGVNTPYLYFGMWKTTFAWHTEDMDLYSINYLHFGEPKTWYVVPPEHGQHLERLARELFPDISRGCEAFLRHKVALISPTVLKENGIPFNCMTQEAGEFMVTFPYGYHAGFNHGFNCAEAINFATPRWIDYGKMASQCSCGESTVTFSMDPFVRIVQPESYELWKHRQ
# From the text: Fig. 2 Histone H2a fragments are KDM5 and KDM4 substrates. […] See Supplementary Table 6 and Supplementary Fig. 2 for assay conditions and quantification, respectively. […] 0-minute MS spectrum in black, 60/90-minute spectrum in red.
# MS-based screening assays with peptides and calf thymus histones were as reported; see Supplementary Table 6 for conditions. Time course assays were based on reported procedures. In brief, equal volumes of the enzyme and substrate solutions were combined to initiate the reaction; 10 µL of 2% (v/v) formic acid (HCOOH) in ddH2O or 100% methanol was added to 10 µL of the reaction mixture to quench reactions at different time points. Unless otherwise stated, time course assays were carried out in triplicate. In some cases, LC–MS was used instead of MALDI-TOF MS to avoid a MALDI matrix induced artefact with the hydroxylated product (Supplementary Fig. 16). […]
# Supplementary Figure 2 Histone H2a peptide fragments are substrates of KDM4s and KDM5s.
# 2 for representative corresponding MALDI–TOF MS traces. Bar graphs comparing % product format ion (+16 Da and demethylation) of H2a(1–20)R3me2a by (a) K DM5 A–D (after 90 minutes) and (b) KDM4A–E ( a ft er 60 minutes), analysed by MALDI– TOF MS. n = (a) 2, (b) 3 (independent assays). See Supplementary Table 6 for assay condit ions. See Figure S13 A 1 for a positive control. […]
# KDM4E [2] = target: T1, KDM4E; assay: Specific hydroxylation activity of KDM4E; conditions: for extent of hydroxylation (in words): KDM4E, relative to H2a(1–20)
# Experimental: (§1) Fig. 3 KDM4E-catalysed hydroxylation occurs at Arg-20 on histone H2a peptide. a LC–MS/MS analysis of H2a(1–20) after KDM4E treatment. Two potential hydroxylation sites, R17 and R20, were identified, with the latter more likely (Supplementary Fig. 9). b Peptide variant studies support Arg-20 hydroxylation; specific activities: H2a(1–20), 0.65 nmol min^−1 mg^−1 SD: 0.073; H2a(1–20) with a C-terminal carboxylic acid (indicated with an -OH), no activity; H2a(1–20)R20A, no activity; H2a(1–20)R20K*, no activity; H2a(1–20)R20Kme3*, 0.44 nmol min^−1 mg^−1 SD: 0.04; H2a(1–20)R3me2a*, 0.51 nmol min^−1 mg^−1 SD: 0.05; H2a(1–20)R3A, 0.37 nmol min^−1 mg^−1 SD: 0.002; H2a(1–21)*, 0.65 nmol min^−1 mg^−1 SD 0.02; H2a(1–25, 0.35 nmol min^−1 mg^−1 SD: 0.044; and H2a(10–29), 0.02 nmol min^−1 mg^−1 SD: 0.013. Measurements employed MALDI–TOF MS except when labelled with*, which employed LC–MS (Supplementary Fig. 10 for representative MS data). n = 3 independent assays. c KDM, RDM and hydroxylation (+16 Da) activities of KDM4E are sequence and context dependent. Histone peptides (H2a, H3, H4) and variants (wild type residue in red, replaced with either K, Kme3, R or Rme2a) were incubated with KDM4E and analysed on MALDI–TOF MS. KDM, RDM and hydroxylation (+16 Da) were detected in some but not all peptides (Supplementary Fig. 10 for representative MS data). (−) No mass changes observed. n = 3 independent assays. See Supplementary Table 6 for conditions. TEXT PRINTED IN THE PICTURE: (c) H2a: K/R replacement K: -; K/R replacement Kme3: KDM/ROH; K/R replacement R: ROH; K/R replacement Rme2a: KDM/ROH | (c) H3: K/R replacement K: -; K/R replacement Kme3: KDM; K/R replacement R: -; K/R replacement Rme2a: RDM | (c) H4: K/R replacement K: -; K/R replacement Kme3: -; K/R replacement R: -; K/R replacement Rme2a: RDM DOUBTS OF THE COPYIST ABOUT THIS PICTURE: Panel c: the table cells are qualitative activity classes (KDM, RDM, ROH, -) for peptide variants, not numbers; it is uncertain whether they count as results. / Panel b: the bar chart prints no values beside the bars, so nothing was taken from it.
# MS-based screening assays with peptides and calf thymus histones were as reported; see Supplementary Table 6 for conditions. Time course assays were based on reported procedures. In brief, equal volumes of the enzyme and substrate solutions were combined to initiate the reaction; 10 µL of 2% (v/v) formic acid (HCOOH) in ddH2O or 100% methanol was added to 10 µL of the reaction mixture to quench reactions at different time points. Unless otherwise stated, time course assays were carried out in triplicate. In some cases, LC–MS was used instead of MALDI-TOF MS to avoid a MALDI matrix induced artefact with the hydroxylated product (Supplementary Fig. 16).
# Data collected from time course assay(s) were used to plot the % conversion vs time (min) using GraphPad Prism5 version 5.04; the resultant slopes were used to fit a line with linear regression to the first-order region of the reaction. The resultant gradient was then converted from % product formation min^−1 to amount of peptide converted (demethylation and / or hydroxylation) in µM.
# Supplementary Figure 17 Comparison of specific hydroxylation activities of KD M4E with H2a(1–20) when anal ysed by MALDI-TO F MS or LC–MS. Comparison of specific activities for KDM4E catalysed hydroxylation of H2a(1–20) when analysed with MALDI-TOF MS or LC–MS ([…] SD: 0.073 and 0.65 nmol·min−1·mg− 1 SD: 0.01 respectively). n = 3 (independent assays). See Supplementary Table 6 for assay […]
# (also on this page, place not known: KDM4E H2a(1 –20) analysed MALDI -TOF LC –MS nmol·min −1·mg−1 nmol·min−1·mg−1 0.8specific activity (nmol·min-1·mg-1)) […]
# [ E nz ym e] [Peptide] [2OG] [Ascorbate] [(NH4)2F e(S O4)2] [TCEP] Buffer pH7.5 Enzyme Cognate substrate (mM) (mM) (mM) (mM) (mM) (mM) [HE PE S]
# Supplementary Table 6 Summary of MS assay conditions for substrate screening. These conditions […]
# KDM4E [3] = target: T1, KDM4E; assay: KDM, RDM and hydroxylation (+16 Da) activities of KDM4E with histone peptide variants by MS; conditions: MALDI–TOF or LC–MS, n = 3
# Experimental: as §1, with “(−) No mass changes observed. n = 3 independent assays. See Supplementary Table 6 for conditions. TEXT PRINTED IN THE PICTURE: (c) H2a: K/R replacement K: -; K/R replacement Kme3: KDM/ROH; K/R replacement R: ROH; K/R replacement Rme2a: KDM/ROH | (c) H3: K/R replacement K: -; K/R replacement Kme3: KDM; K/R replacement R: -; K/R replacement Rme2a: RDM | (c) H4: K/R replacement K: -; K/R replacement Kme3: -; K/R replacement R: -; K/R replacement Rme2a: RDM DOUBTS OF THE COPYIST ABOUT THIS PICTURE: Panel c: the table cells are qualitative activity classes (KDM, RDM, ROH, -) for peptide variants, not numbers; it is uncertain whether they count as results. / Panel b: the bar chart prints no values beside the bars, so nothing was taken from it.” left out
# [4] = MALDI–TOF MS, mean of n = 3, SD: H2a(1–20) 0.073, R3A 0.002, H2a(1–25) 0.044, H2a(10–29) 0.013
+16 Da mass shift (KDM4E [1]),"specific activity (hydroxylation) (KDM4E [2]; Figure 3b, MALDI–TOF MS, replicate 1) [nmol/min/mg]","specific activity (hydroxylation) (KDM4E [2]; Figure 3b, MALDI–TOF MS, replicate 2) [nmol/min/mg]",extent of hydroxylation (in words) (KDM4E [2]),specific activity (hydroxylation) (KDM4E [2]; [4]),+16 Da mass shift (hydroxylation) (KDM4E [3]),"specific activity (hydroxylation) (KDM4E [2]; Figure 3b, LC–MS (*), replicate 1) [nmol/min/mg]","specific activity (hydroxylation) (KDM4E [2]; Figure 3b, LC–MS (*), replicate 2) [nmol/min/mg]","specific activity (hydroxylation) (KDM4E [2]; Figure 3b, LC–MS (*), replicate 3) [nmol/min/mg]",mass shift (KDM4E [3]),Substance
A +16 Da mass shift occurs,,,,,,,,,,H2a(1–20)R3me1: H2a(1–20) mono-methylated at Arg-3
,0.3027,0.3905,lower,0.35 nmol/min/mg,+16 Da mass shift,,,,,Ac - SGR GKQ GGKAR AKAKT R SSR AGL Q F [H2a(1–25)]
,,,no activity was observed,no activity,,0,0,0,no mass shift,"Ac - SGR GKQ GGKAR AKAKT R SSR - O H [H2a(1–20)-OH, H2a(1–20) with a C-terminal carboxylic acid]"
